In patent US11136301B2, “Broad spectrum antiviral compounds and uses thereof” (The Regents Of The University Of California, priority 2015, dated 2021):
Entries after “also recorded” stand apart in the source; their conditions may differ. Where two headings read alike, the source gives them in different places.

Tests used:
[1] = system: wild-type HIV-1 (HIV-1LAI) in H9 cells (non-permissive); experiment: microbe, parasite or virus in culture; assay type: cell-based; details: for antiviral activity against HIV-1 (in words): HIV-1 replication
[2] = Water solubility of choline salts; assay type: physicochemical
[3] = system: HA-tagged A3G and GFP-tagged Vif or ΔVif in 293FT cells; experiment: Immunoblot of A3G and Vif levels in transfected 293FT cells; details: 16 h; for upregulation of A3G and downregulation of Vif (immunoblots, FIG. 16): 293FT cells, 50 μM
Zika virus = experiment: Zika viral replication inhibition; assay type: cell-based; details: FIG. 20
Ebola virus = assay type: cell-based; details: FIG. 19
[4] = system: wild-type HIV-1 (HIV-1LAI) in MT-4 cells (permissive); experiment: Antiviral activity assay: wild-type HIV-1 in permissive MT4 cells, reverse transcriptase activity in culture supernatants; assay type: cell-based
[5] = system: polyubiquitination of A3G and Vif; experiment: Ubiquitination assay in 293FT cells; assay type: cell-based; details: 293FT-A3G-ΔVif cells (lacking Vif)
Experimental: Cells were incubated with or without 10 μM of IMA82, IMD55, or IMD64 for 16 h, and then with or without 10 μM of the calpain inhibitor ALLN for 4 h. The cells were washed once with PBS and lysed. Samples of 200 μg protein were immunoprecipitated by the addition of rat anti-HA (Roche) or mouse anti-GFP (Wako) antibodies (7 μg) and 50 μl protein G DYNABEADS® (Invitrogen) and rotated at RT for 2 h. The beads were washed three times with PBS containing 0.05% Tween 20 and boiled in 5×SDS sample buffer. The denatured proteins were resolved and electroblotted onto PVDF membranes. The membranes were probed with rabbit anti-ubiquitin, rabbit anti-HA, or rabbit anti-GFP antibodies, as described above.

[6] = system: A3G, Vif, p24, HSP90 in HIV-1LAI-infected H9 and MT4 cells; experiment: Protein analysis (immunoblot) of HIV-1 infected H9 and MT4 cells; assay type: cell-based
Experimental: Non-permissive (H9) and permissive (MT4) cells were treated with 1% DMSO, IMA82, or 17-DMAG overnight and then infected with HIV-1LAI for 5 h. Cells were washed three times with PBS and cultured in medium for 72 h in the presence of the same concentrations of DMSO, IMA82, or 17-DMAG. Total cell lysates were prepared with M-PER buffer containing 0.5% Triton X-100, 150 mM NaCl, 5 mM EDTA, and protease inhibitor cocktail. Protein concentrations were determined with the DC protein assay kit (Bio-Rad). Immunoblotting was performed as described above.

[7] = system: Vif-A3G-HSP90-Cul5-CBF-β E3 ligase complex; experiment: Immunoprecipitation of IMA82-interacting proteins / E3 ligase complex; assay type: cell-based; details: 293FT cells transfected with FLAG-HSP90 and HA-A3G, 16 h
Experimental: Cells were washed twice with PBS and lysed in IP lysis buffer (Thermo) or in a buffer composed of 50 mM Tris-HCl (pH 7.2), 150 mM NaCl, 1% NP-40, 10% glycerol, and protease inhibitor cocktail. Cell lysates ([…]) were incubated with 5 μl of rat anti-HA (Roche), rabbit anti-GFP (Cell Signaling), mouse anti-Hsp90 (Millipore), or rabbit anti-Cul5 (Sigma) plus 30 μl of protein A or G DYNABEADS® (Invitrogen) and rotated at RT for 2 h. The beads were washed three times with PBS containing 0.05% Tween 20. Each lysate was immunoprecipitated in triplicate and the beads were combined. Immune complexes were eluted by boiling in 5×SDS sample buffer. The proteins were separated by SDS-PAGE and analyzed by immunoblotting with antibodies to HA (A3G), GFP (Vif), Hsp90, Cul5, and CBF-β, as described above.

[8] = Human immunodeficiency virus 1, H9, read-out: IC50, anti-HIV-1 activity, non-permissive H9 cells
[9] = Human immunodeficiency virus 1, H9, read-out: Antiviral activity (IC50 μM) H9 Cells, Table 4, wild-type HIV-1, non-permissive H9 cells
[10] = Human immunodeficiency virus 1, H9, read-out: Antiviral activity (IC50 μM) H9 Cells, Table 7, wild-type HIV-1, non-permissive H9 cells
[11] = Human immunodeficiency virus 1, H9, read-out: Antiviral activity (IC50 μM) H9 cells, Table 5, wild-type HIV-1, non-permissive H9 cells
[12] = Human immunodeficiency virus 1, H9, read-out: Antiviral activity (IC50 μM) H9 cells, Table 8, wild-type HIV-1, non-permissive H9 cells
[13] = Human immunodeficiency virus 1, H9, read-out: Antiviral activity (IC50 μM) H9 cells, wild-type HIV-1 (HIV-1LAI), H9 cells (non-permissive), RT activity in culture supernatants, compounds 1 to 50 μM
[14] = Human immunodeficiency virus 1, H9, read-out: Antiviral activity (IC50 μM) H9, Table 2, wild-type HIV-1, non-permissive H9 cells
[15] = Human immunodeficiency virus 1, MT4, Table 2, wild-type HIV-1, permissive MT4 cells, read-out: Antiviral activity (IC50 μM) MT4
[16] = Human immunodeficiency virus 1, MT4, wild-type HIV-1 (HIV-1LAI), MT4 cells (permissive), RT activity in culture supernatants, compounds 1 to 50 μM, read-out: Antiviral activity (IC50 μM) MT4 cells

| Structure (SMILES) | antiviral activity against HIV-1 (in words) [1] | IC50 [1, 8] | water solubility [2] | upregulation of A3G and downregulation of Vif (immunoblots, FIG. 16) [3] | IC50 [1, 9] | IC50 [1, 10] | IC50 [1, 11] | IC50 [1, 12] | IC50 [1, 13] | Zika viral replication (Zika virus) | IC50 [1, 14] | IC50 [4, 15] | IC50 [4, 16] | also measured |
| --- | --- | --- | --- | --- | --- | --- | --- | --- | --- | --- | --- | --- | --- | --- |
| COc1ccccc1-n1cc(-c2ccccc2S(=O)(=O)c2ccc(C(=O)O)cc2)nn1 [Compound 2gy, 2-Hydroxy-N,N,N-trimethylethanaminium 4-((2-(1-(2-methoxyphenyl)-1H-1,2,3-triazol-4-yl)phenyl)sulfonyl)benzoate] | potent activities | 0.2 µM | water-soluble | same mechanism as of RN-18; also recorded: same mechanism as observed for RN-18 and 1d | – | – | – | – | – | – | – | – | – | – |
| COC(=O)c1ccc(Sc2ccccc2-c2cn(-c3c(OC)cccc3OC)nn2)cc1 [Compound 6bx, Methyl 4-((2-(1-(2,6-dimethoxyphenyl)-1H-1,2,3-triazol-4-yl)phenyl)thio)benzoate] | – | 0.2 µM | – | – | 0.2 µM | 0.2 µM | 0.2 µM | 0.2 µM | 0.2 µM | Zika viral replication inhibition | – | – | – | – |
| COc1ccc(OC)c(-n2cc(-c3ccccc3S(=O)(=O)c3ccc(C(=O)O)cc3)nn2)c1 [Compound 5gy, 2-Hydroxy-N,N,N-trimethylethanaminium 4-((2-(1-(2,5-dimethoxyphenyl)-1H-1,2,3-triazol-4-yl)phenyl)sulfonyl)benzoate] | potent activities | 0.5 µM | water-soluble | same mechanism as of RN-18; also recorded: same mechanism as observed for RN-18 and 1d | 0.5 µM | 0.5 µM | – | – | – | – | – | – | – | – |
| COC(=O)c1ccc(Sc2ccccc2-c2cn(-c3ccc(OC)cc3OC)nn2)cc1 [Compound 4bx, Methyl 4-((2-(1-(2,4-dimethoxyphenyl)-1H-1,2,3-triazol-4-yl)phenyl)thio)benzoate] | – | – | – | – | – | – | 2 µM | 2 µM | 2 µM | Zika viral replication inhibition | – | – | – | Ebola viral replication (Ebola virus): Ebola viral replication inhibition |
| COc1ccc(OC)c(-n2cc(-c3ccccc3S(=O)(=O)c3ccc([N+](=O)[O-])cc3)nn2)c1 [Compound 5ay, 1-(2,5-Dimethoxyphenyl)-4-(2-((4-nitrophenyl)sulfonyl)phenyl)-1H-1,2,3-triazole] | – | 1 to 3 µM | – | – | 1 µM | 1 µM | 1 µM | 1 µM | 1 µM | – | 1 µM | > 50 µM | > 50 µM | Ebola viral replication (Ebola virus): Ebola viral replication inhibition |
| COC(=O)c1ccc(Sc2ccccc2-c2cn(-c3cc(OC)ccc3OC)nn2)cc1 [Compound 5bx, Methyl 4-((2-(1-(2,5-dimethoxyphenyl)-1H-1,2,3-triazol-4-yl)phenyl)thio)benzoate] | – | 0.2 µM | – | same mechanism as of RN-18; also recorded: same mechanism as observed for RN-18 and 1d | 0.2 µM | 0.2 µM | 0.2 µM | 0.2 µM | 0.2 µM | Zika viral replication inhibition | 0.2 µM | > 50 µM | > 50 µM | – |
| COc1ccc(-n2cc(-c3ccccc3S(=O)(=O)c3ccc(C(=O)O)cc3)nn2)c(OC)c1 [Compound 4gy, 2-Hydroxy-N,N,N-trimethylethanaminium 4-((2-(1-(2,4-dimethoxyphenyl)-1H-1,2,3-triazol-4-yl)phenyl)sulfonyl)benzoate] | potent activities | 0.7 µM | water-soluble | – | 0.7 µM | 0.7 µM | – | – | – | – | 0.7 µM | > 50 µM | > 50 µM | – |
| C=CCNC1=C2C[C@@H](C)C[C@H](OC)[C@H](O)[C@@H](C)/C=C(\C)[C@H](OC(N)=O)[C@@H](OC)/C=C\C=C(/C)C(=O)NC(=CC1=O)C2=O [Compound 17-AAG, 17-N-Allylamino-17-demethoxygeldanamycin, reference compound] | – | – | – | – | – | – | – | – | – | – | – | – | – | A3G ubiquitination [5]: ubiquitinated; A3G levels ([6]; HIV-1-infected H9 cells): dose-dependently decreased the expression of A3G; Vif levels ([6]; HIV-1-infected H9 cells): without affecting Vif expression; A3G expression ([6]; uninfected H9 cells, 16 h): decreased; HSP90-A3G interaction, FLAG-HSP90 affinity purification [7]: remained in complexes with A3G; A3G expression ([3]; 293FT cells co-expressing HA-A3G and Vif or ΔVif): dose-dependently decreased A3G expression; Vif expression / degradation ([3]; 293FT cells co-expressing HA-A3G and Vif): unaffected; HSP90 expression ([3]; transfected 293FT cells): no effect on HSP90 levels |
